Measurements: patent publication US20230399312A1, “SUBSTITUTED PYRIMIDINES AND METHODS OF USE” (THERAVANCE BIOPHARMA R&D IP, LLC, priority 2020, published 2023)

Assays:
[1] = test system: TGF-β-stimulated SMAD3 phosphorylation in BEAS-2B cells; experiment: Cellular ALK5 potency assay, inhibition of TGF-β stimulated pSMAD3 formation in BEAS-2B cells; format: cell-based; settings: Homo sapiens, pSMAD3, TGF-β 10 ng/mL, read-out: BEAS2B pIC50 (converted)
Summary of the method: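 Potency is expressed as pIC50, based on dose-dependent reduction of TGF-β-induced pSMAD3 AlphaLISA signal relative to stimulated cells without compound. BEAS-2B cells received compound 1 h before a 30 min, 10 ng/mL TGF-β challenge.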

[2] = target: T1, recombinant human ALK5 (TGF-βR1) protein (Homo sapiens, UniProt P36897); experiment: Biochemical ALK5 (TGF-βR1) assay to measure pKi (LANCE Ultra ULight kinase assay); settings: apparent pKi, converted from pIC50 by Cheng-Prusoff
T1 construct: purchased Life Technologies PR9075A
T1 sequence (P36897 34-503): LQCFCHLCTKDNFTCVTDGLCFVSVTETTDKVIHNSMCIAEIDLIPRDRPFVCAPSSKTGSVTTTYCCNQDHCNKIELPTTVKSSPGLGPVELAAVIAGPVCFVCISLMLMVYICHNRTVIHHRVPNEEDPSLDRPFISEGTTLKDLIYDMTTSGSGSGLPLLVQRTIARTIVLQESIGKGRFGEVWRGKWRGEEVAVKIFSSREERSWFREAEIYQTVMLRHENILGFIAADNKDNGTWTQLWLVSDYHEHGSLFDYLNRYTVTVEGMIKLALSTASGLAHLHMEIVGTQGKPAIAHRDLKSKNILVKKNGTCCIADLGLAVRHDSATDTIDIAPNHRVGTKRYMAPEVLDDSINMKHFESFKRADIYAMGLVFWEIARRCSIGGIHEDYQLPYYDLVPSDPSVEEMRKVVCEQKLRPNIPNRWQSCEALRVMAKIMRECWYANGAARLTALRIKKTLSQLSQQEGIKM
Summary of the method: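 Cmpd + enzyme, 60 min RT; ATP from 125 μM (5×) stock, 60 min 37 °C; stop 12 mM EDTA/Eu anti-pThr1342 Topo2α Ab (pH 7.0 buffer); TR-FRET 665 nm. DMSO = max, SD-208 = min signal. 4-PL pIC50 → pKi (Cheng-Prusoff).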

Row | SMILES | IC50 [1] | Ki [2]
1 | Cc1cccc(-c2nccc(Nc3ccnc(Nc4cccc(NC(=O)NC5CCNC5)c4)n3)n2)n1 (stereo not shown) [Compound 168, 1-[3-[[4-[[2-(6-methyl-2-pyridyl)pyrimidin-4-yl]amino]pyrimidin-2-yl]amino]phenyl]-3-pyrrolidin-3-yl-urea] | 25.1 to 158 nM | 0.0398 to 0.316 nM
2 | COCCn1cc(-c2ccc(Nc3nccc(Nc4ccnc(-c5cccc(C)n5)n4)n3)cc2)cn1 [Compound 169, N2-[4-[1-(2-methoxyethyl)pyrazol-4-yl]phenyl]-N4-[2-(6-methyl-2-pyridyl)pyrimidin-4-yl]pyrimidine-2,4-diamine] | 25.1 to 158 nM | 0.398 to 3.16 nM
3 | Cc1ccc(Nc2nccc(Nc3ccnc(-c4cccc(C)n4)n3)n2)cc1 [Compound 170, N4-[2-(6-methyl-2-pyridyl)pyrimidin-4-yl]-N2-(p-tolyl)pyrimidine-2,4-diamine] | 25.1 to 158 nM | 0.398 to 3.16 nM
4 | COC(=O)C1CN(CCNc2ccc(Nc3nccc(Nc4ccnc(-c5cccc(C)n5)n4)n3)cc2)CCN1C(C)C (stereo not shown) [Compound 171, methyl 1-isopropyl-4-[2-[4-[[4-[[2-(6-methyl-2-pyridyl)pyrimidin-4-yl]amino]pyrimidin-2-yl]amino]anilino]ethyl] piperazine-2-carboxylate] | 25.1 to 158 nM | 0.398 to 3.16 nM
5 | COC(=O)[C@H]1CN(c2ccc(Nc3nccc(Nc4ccnc(-c5cccc(C)n5)n4)n3)cc2)CCN1 [Compound 172, methyl (2R)-4-[4-[[4-[[2-(6-methyl-2-pyridyl)pyrimidin-4-yl]amino]pyrimidin-2-yl]amino]phenyl]piperazine-2-carboxylate] | 25.1 to 158 nM | 0.0398 to 0.316 nM
6 | Cc1cccc(-c2nccc(Nc3ccnc(Nc4ccc(N5CCCC(C(=O)OC6CNC6)C5)cc4)n3)n2)n1 (stereo not shown) [Compound 173, azetidin-3-yl 1-[4-[[4-[[2-(6-methyl-2-pyridyl)pyrimidin-4-yl]amino]pyrimidin-2-yl]amino]phenyl]piperidine-3-carboxylate] | 25.1 to 158 nM | 0.0398 to 0.316 nM
7 | Cc1cccc(-c2nccc(Nc3ccnc(Nc4ccc(CN5CC(C(=O)O[C@H]6CCNC6)C5)cc4)n3)n2)n1 [Compound 174, [(3S)-pyrrolidin-3-yl] 1-[[4-[[4-[[2-(6-methyl-2-pyridyl)pyrimidin-4-yl]amino]pyrimidin-2-yl]amino]phenyl]methyl] azetidine-3-carboxylate] | 25.1 to 158 nM | 0.0398 to 0.316 nM
8 | Cc1cccc(-c2nccc(Nc3ccnc(Nc4ccc5c(c4)CNCC5)n3)n2)n1 [Compound 175, N4-(2-(6-methylpyridin-2-yl)pyrimidin-4-yl)-N2-(1,2,3,4-tetrahydroisoquinolin-7-yl)pyrimidine-2,4-diamine] | 25.1 to 158 nM | ≤ 0.0316 nM
9 | CNC1CCN(S(=O)(=O)c2cccc(Nc3nccc(Nc4ccnc(-c5cccc(C)n5)n4)n3)c2)CC1 [Compound 176, N2-[3-[[4-(methylamino)-1-piperidyl]sulfonyl]phenyl]-N4-[2-(6-methyl-2-pyridyl)pyrimidin-4-yl]pyrimidine-2,4-diamine] | 25.1 to 158 nM | 0.398 to 3.16 nM
10 | Cc1cccc(-c2nccc(Nc3ccnc(Nc4ccc(CN5CC6CCCC(C5)N6)cc4)n3)n2)n1 [Compound 177, N2-[4-(3,9-diazabicyclo[3.3.1]nonan-3-ylmethyl)phenyl]-N4-[2-(6-methyl-2-pyridyl)pyrimidin-4-yl]pyrimidine-2,4-diamine] | 25.1 to 158 nM | 0.0398 to 0.316 nM
11 | Cc1cccc(-c2nccc(Nc3ccnc(Nc4cccc(C(=O)OCC5CNC5)c4)n3)n2)n1 [Compound 178, azetidin-3-ylmethyl 3-((4-((2-(6-methylpyridin-2-yl)pyrimidin-4-yl)amino)pyrimidin-2-yl)amino)benzoate] | 25.1 to 158 nM | 0.398 to 3.16 nM
12 | Cc1ccc(O)cc1-c1nccc(Nc2ccnc(Nc3ccc(N4CCNCC4)cc3)n2)n1 [Compound 179, 4-methyl-3-[4-[[2-(4-piperazin-1-ylanilino)pyrimidin-4-yl]amino]pyrimidin-2-yl]phenol] | 25.1 to 158 nM | 0.398 to 3.16 nM
13 | Cc1cccc(-c2nccc(Nc3ccnc(Nc4ccc(NC(=O)C5(O)CNC5)cc4)n3)n2)n1 [Compound 180, 3-hydroxy-N-[4-[[4-[[2-(6-methyl-2-pyridyl)pyrimidin-4-yl]amino]pyrimidin-2-yl]amino]phenyl]azetidine-3-carboxamide] | 25.1 to 158 nM | 0.0398 to 0.316 nM
14 | Cc1cccc(-c2nccc(Nc3ccnc(Nc4cnn(CC5CNC5)c4)n3)n2)n1 [Compound 181, N2-[1-(azetidin-3-ylmethyl)pyrazol-4-yl]-N4-[2-(6-methyl-2-pyridyl)pyrimidin-4-yl]pyrimidine-2,4-diamine] | 200 to 1260 nM | 0.0398 to 0.316 nM
15 | Cc1cccc(-c2nccc(Nc3ccnc(Nc4ccc(CN5CCC[C@@H](C(=O)OCC6CN(C)C6)C5)cc4)n3)n2)n1 [Compound 182, (1-methylazetidin-3-yl)methyl (3R)-1-[[4-[[4-[[2-(6-methyl-2-pyridyl)pyrimidin-4-yl]amino]pyrimidin-2-yl]amino]phenyl]methyl] piperidine-3-carboxylate] | 25.1 to 158 nM | 0.0398 to 0.316 nM
16 | Cc1cccc(-c2nccc(Nc3ccnc(Nc4ccc(CN5CCN[C@@H](CO)C5)cc4)n3)n2)n1 [Compound 183, [(2R)-4-[[4-[[4-[[2-(6-methyl-2-pyridyl)pyrimidin-4-yl]amino]pyrimidin-2-yl]amino]phenyl]methyl]piperazin-2-yl]methanol] | 25.1 to 158 nM | 0.0398 to 0.316 nM
17 | Cc1cccc(-c2nccc(Nc3ccnc(Nc4cc(F)c(NC(=O)C5CCNCC5)c(Cl)c4)n3)n2)n1 [Compound 184, N-[2-chloro-6-fluoro-4-[[4-[[2-(6-methyl-2-pyridyl)pyrimidin-4-yl]amino]pyrimidin-2-yl]amino]phenyl]piperidine-4-carboxamide] | 25.1 to 158 nM | 0.0398 to 0.316 nM
18 | Cc1cccc(-c2nccc(Nc3ccnc(Nc4ccc(N5CCC(C(=O)O[C@H]6CCNC6)CC5)cc4)n3)n2)n1 [Compound 185, [(3S)-pyrrolidin-3-yl] 1-[4-[[4-[[2-(6-methyl-2-pyridyl)pyrimidin-4-yl]amino]pyrimidin-2-yl]amino]phenyl]piperidine-4-carboxylate] | 25.1 to 158 nM | 0.0398 to 0.316 nM
19 | Cc1cccc(-c2nccc(Nc3ccnc(Nc4ccc(N5CC(CN)C5)cc4)n3)n2)n1 [Compound 186, N2-[4-[3-(aminomethyl)azetidin-1-yl]phenyl]-N4-[2-(6-methyl-2-pyridyl)pyrimidin-4-yl]pyrimidine-2,4-diamine] | 25.1 to 158 nM | 0.0398 to 0.316 nM
20 | Cc1cccc(-c2nccc(Nc3ccnc(Nc4ccc(CN)cc4)n3)n2)n1 [Compound 187, N2-[4-(aminomethyl)phenyl]-N4-[2-(6-methyl-2-pyridyl)pyrimidin-4-yl]pyrimidine-2,4-diamine] | 25.1 to 158 nM | 0.0398 to 0.316 nM
21 | Cc1cccc(-c2nccc(Nc3ccnc(Nc4csc(C(=O)N5CCNCC5)c4)n3)n2)n1 [Compound 188, [4-[[4-[[2-(6-methyl-2-pyridyl)pyrimidin-4-yl]amino]pyrimidin-2-yl]amino]-2-thienyl]-piperazin-1-yl-methanone] | 25.1 to 158 nM | ≤ 0.0316 nM
22 | Cc1cccc(-c2nccc(Nc3ccnc(Nc4ccc(N5CCN(C(C)C)CC5)cc4)n3)n2)n1 [Compound 189, N2-[4-(4-isopropylpiperazin-1-yl)phenyl]-N4-[2-(6-methyl-2-pyridyl)pyrimidin-4-yl]pyrimidine-2,4-diamine] | 25.1 to 158 nM | ≤ 0.0316 nM
23 | CC(=O)N1CCN(c2cccc(Nc3nccc(Nc4ccnc(-c5cccc(C)n5)n4)n3)c2)CC1 [Compound 190, 1-[4-[3-[[4-[[2-(6-methyl-2-pyridyl)pyrimidin-4-yl]amino]pyrimidin-2-yl]amino]phenyl]piperazin-1-yl]ethanone] | 25.1 to 158 nM | 0.0398 to 0.316 nM
24 | Cc1cccc(-c2nccc(Nc3ccnc(Nc4cc(N)c5c(c4)OCCO5)n3)n2)n1 [Compound 191, N2-(5-amino-2,3-dihydro-1,4-benzodioxin-7-yl)-N4-[2-(6-methyl-2-pyridyl)pyrimidin-4-yl]pyrimidine-2,4-diamine] | 25.1 to 158 nM | 0.398 to 3.16 nM
25 | Cc1cccc(-c2nccc(Nc3ccnc(Nc4ccc(C5=CCNCC5)cc4)n3)n2)n1 [Compound 193, N4-[2-(6-methyl-2-pyridyl)pyrimidin-4-yl]-N2-[4-(1,2,3,6-tetrahydropyridin-4-yl)phenyl]pyrimidine-2,4-diamine] | ≤ 20 nM | 0.0398 to 0.316 nM
26 | Cc1cccc(-c2nccc(Nc3ccnc(Nc4ccc(N5CCC(NCC(C)C)CC5)cc4)n3)n2)n1 [Compound 194, N2-[4-[4-(isobutylamino)-1-piperidyl]phenyl]-N4-[2-(6-methyl-2-pyridyl)pyrimidin-4-yl]pyrimidine-2,4-diamine] | 25.1 to 158 nM | 0.0398 to 0.316 nM
